In paper PMC10851555, “Safinamide, an inhibitor of monoamine oxidase, modulates the magnitude, gating, and hysteresis of sodium ion current” (BMC Pharmacology & Toxicology, 2024):

System: voltage-gated sodium ion (NaV) channels in pituitary GH3 cells
Assay: Window INa [INa(W)] induced by ascending ramp voltage (−100 to +40 mV over 200 ms) in GH3 cells
Format: cell-based, rat
Conditions: for ∆G0 for gating of INa(W) activation at 0 mV: control 6.78 ± 1.1, ∆G0 = q × F × V1/2, n = 7
Description: The sigmoidal relationship between Vramp-induced INa(W) and the upsloping Vramp (nonlinear current–voltage relationship) was investigated and fitted with the Boltzmann function as follows: [drawing 2]
where V is the membrane potential in millivolts, Erev is the reversal potential of INa, G is the INa conductance in nanosiemens, I is the current, Vh is the voltage at which half-maximal activation or inactivation of the current occurs, q is the apparent gating charge, F is Faraday’s constant, R is the universal gas constant, and T is the absolute temperature.
The free energy ∆G0 for the gating of INa(W) was determined by assuming a two-state gating model [equilibrium between closed (resting) and open states] of the NaV channel. The ∆G0 for the activation of INa(W) at 0 mV could be calculated as follows: q × F × V1/2 [45, 46]. The standard errors in ∆G0 ( [drawing 3] ) could be calculated as follows: […]
In the present study, we investigated whether the addition of SAF to GH3 cells modulates the magnitude of INa(W) induced by ascending Vramp. Test cells were maintained at −80 mV and subjected to Vramp ascending from −100 to +40 mV over 200 ms (i.e., ramp speed of 0.7 mV/ms) to induce INa(W). […] The ∆area values of INa(W) in the absence and presence of SAF and SAF plus Ran were calculated (Fig. 7B).
Fig. 7 Stimulatory effects of SAF on window INa [INa(W)] induced by an ascending ramp voltage Vramp in GH3 cells. For the experiments, the test cells were maintained at −80 mV and subjected to Vramp ranging from −100 to +40 mV over 200 ms (ramp speed of 0.7 mV/ms). (A) INa(W) trace in the absence (a, blue) and presence (b, red) of 10 μM SAF. The inset indicates the Vramp protocol, and the downward deflection indicates inward-directed current. The continuous gray lines corresponding to the untreated or SAF-treated (10 μM) cells were fitted (least-squares minimization) with the Boltzmann equation. The values of […] and q (apparent gating charge) induced by ascending Vramp over 200 ms in the absence (blue) of SAF were, respectively, −34 mV and 2.1 e; the corresponding values in the presence (red) of 10 μM SAF were −38 mV and 2.8 e, respectively. (B) Summary graph illustrating the effects of SAF (3 and 10 μM) and SAF (10 μM) plus Ran (10 μM) on the Δarea of INa(W) in GH3 cells (mean ± standard error of the mean; n = 7 for each point). The value of Δarea was measured at a voltage ranging from −80 and +40 mV, which corresponded to INa(W) induced by the ascending Vramp. […] (C) Summary graph illustrating the effects of SAF (3 and 10 μM) and SAF plus Ran (10 μM) on ΔG0 (mean ± standard error of the mean; n = 7 for each point). The estimation of ΔG0 for the induction of instantaneous INa(W) is described in the Materials and Methods section.

With `C[C@H](NCc1ccc(OCc2cccc(F)c2)cc1)C(N)=O` [SAF, (S)-2-((4-((3-fluorobenzyl)oxy)benzyl)amino)propanamide] the “∆G0 for gating of INa(W) activation at 0 mV” value (3 μM SAF) was 2.11 ± 0.382 kcal/mol, the “q (apparent gating charge) of INa(W)” value (10 μM SAF, absence of SAF 2.1 e) was 2.8 e and the “V1/2 (half-maximal activation voltage) of INa(W) induced by ascending Vramp (Boltzmann fit)” value (10 μM SAF, absence of SAF −34 mV) was −38 mV. The “∆G0 for gating of INa(W) activation at 0 mV” value (10 μM SAF) was 2.476 ± 0.43 kcal/mol and the “amplitude and strength (∆area) of INa(W)” value (within 1 min of SAF exposure) was “sharply increased”.
